In PubChem BioAssay AID256 (DTP/NCI, 2004):
Where “and” joins values, the source holds several entries; their conditions need not be identical. Equal values may be shown once. Toxic doses and inconclusive results are not listed. The calls were made as follows: active = survival T/C of 150% or more; inactive = T/C below 125% in these data.

System: CD2F1 mice, L1210 leukemia ip, survival T/C
Assay: NCI In Vivo Anticancer Drug Screen. Data for tumor model L1210 Leukemia (intraperitoneal) in CD2F1 (CDF1) mice
Details: endpoint: mean survival time, higher = longer survival
In short: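 Transplantable tumor in mice; compound-treated vs vehicle-treated groups. Read-out = treated/control ratio of the measured endpoint.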

[1] = dose: 100.0 mg/kg/injection, schedule: Q04DX003 (ip), vehicle: saline with Tween-80
[2] = dose: 200.0 mg/kg/injection, schedule: Q04DX003 (ip), vehicle: saline with Tween-80
[3] = dose: 400.0 mg/kg/injection, schedule: Q04DX003 (ip), vehicle: saline with Tween-80
[4] = dose: 200.0 mg/kg/injection, schedule: Q01DX001 (ip), vehicle: saline
[5] = dose: 50.0 mg/kg/injection, schedule: Q01DX009 (ip), vehicle: saline with Tween-80
[6] = dose: 100.0 mg/kg/injection, schedule: Q01DX009 (ip), vehicle: saline with Tween-80

Measured: T/C

Cc1ccc(-c2cc(C(=O)O)c3cc(F)ccc3n2)cc1
inactive: [1] 101 % of control | [2] 95 % of control | [3] 100 % of control

O=c1[nH]cnc2c1nc(Br)n2C1OC(CO)C(O)C1O (centres undefined)
inactive: dose: 12.5 mg/kg/injection, schedule: Q01DX005 (ip), vehicle: Klucel (hydroxypropylcellulose) (HPC) 91 % of control | dose: 25.0 mg/kg/injection, schedule: Q01DX005 (ip), vehicle: Klucel (hydroxypropylcellulose) (HPC) 89 % of control | dose: 50.0 mg/kg/injection, schedule: Q01DX005 (ip), vehicle: Klucel (hydroxypropylcellulose) (HPC) 93 % of control | dose: 100.0 mg/kg/injection, schedule: Q01DX005 (ip), vehicle: Klucel (hydroxypropylcellulose) (HPC) 88 % of control | dose: 200.0 mg/kg/injection, schedule: Q01DX005 (ip), vehicle: Klucel (hydroxypropylcellulose) (HPC) 89 % of control

O=C1c2cccc(O)c2C(=O)c2c(O)cccc21
inactive: dose: 100.0 mg/kg/injection, schedule: Q01DX001 (ip), vehicle: saline 100 % of control | [4] 102 % of control | dose: 400.0 mg/kg/injection, schedule: Q01DX001 (ip), vehicle: saline 100 % of control

CCOC(=O)/C=C\C(=O)O.[Mn]
inactive: dose: 25.0 mg/kg/injection, schedule: Q04DX003 (ip), vehicle: saline 102 % of control | dose: 50.0 mg/kg/injection, schedule: Q04DX003 (ip), vehicle: saline 104 % of control | dose: 100.0 mg/kg/injection, schedule: Q04DX002 (ip), vehicle: saline 98 % of control | dose: 100.0 mg/kg/injection, schedule: Q04DX003 (ip), vehicle: saline 112 % of control | [4] 98 % of control | dose: 200.0 mg/kg/injection, schedule: Q04DX002 (ip), vehicle: saline 97 % of control | dose: 300.0 mg/kg/injection, schedule: Q04DX002 (ip), vehicle: saline 116 % of control

O=C1c2ccccc2C(Cl)=C(Cl)C1(Cl)Cl
inactive: dose: 12.5 mg/kg/injection, schedule: Q01DX009 (ip), vehicle: saline with Tween-80 92 % of control | dose: 25.0 mg/kg/injection, schedule: Q01DX009 (ip), vehicle: saline with Tween-80 101 % of control | [5] 101 % of control | [1] 96 % of control | [3] 100 % of control

C=CN1C(=O)NC(C)(CC(C)C)C1=O (centres undefined)
inactive: [1] 94 % of control | [2] 92 % of control | [3] 102 % of control

O=C(Oc1ccccc1/C=C/[n+]1ccccc1)c1ccccc1
inactive: [5] 92 % of control | [6] 100 % of control | dose: 200.0 mg/kg/injection, schedule: Q01DX009 (ip), vehicle: saline with Tween-80 96 % of control

CCCCCCCCCCCCCC(CCCCCCCC)CCCCCCCC
inactive: dose: 100.0 mg/kg/injection, schedule: Q01DX001 (ip), vehicle: saline sonified 111 % of control | dose: 200.0 mg/kg/injection, schedule: Q01DX001 (ip), vehicle: saline sonified 104 % of control | dose: 400.0 mg/kg/injection, schedule: Q01DX001 (ip), vehicle: saline sonified 101 % of control

COc1cc(/C=C2\SC(=O)NC2=O)ccc1O
inactive: [6] 105 % of control

Cc1cc2nc3c4ccccc4n(C)c3nc2cc1C
inactive: dose: 50.0 mg/kg/injection, schedule: Q01DX009 (sc), vehicle: Klucel (hydroxypropylcellulose) (HPC) 101 % of control | dose: 100.0 mg/kg/injection, schedule: Q01DX009 (sc), vehicle: Klucel (hydroxypropylcellulose) (HPC) 104 % of control | dose: 200.0 mg/kg/injection, schedule: Q01DX009 (sc), vehicle: Klucel (hydroxypropylcellulose) (HPC) 104 % of control

CCn1c(-c2cccc(N)c2)cc(=O)n1-c1ccccc1
inactive: [1] 98 % of control | [2] 96 % of control | [3] 90 % of control

N#C/C(=C/c1ccc(Cl)cc1)C(N)=O
inactive: dose: 12.5 mg/kg/injection, schedule: Q04DX003 (ip), vehicle: Klucel (hydroxypropylcellulose) (HPC) 96 % of control and 98 % of control | dose: 25.0 mg/kg/injection, schedule: Q04DX003 (ip), vehicle: Klucel (hydroxypropylcellulose) (HPC) 93 % of control and 95 % of control | dose: 50.0 mg/kg/injection, schedule: Q04DX003 (ip), vehicle: Klucel (hydroxypropylcellulose) (HPC) 100 % of control and 104 % of control | dose: 100.0 mg/kg/injection, schedule: Q01DX001 (ip), vehicle: saline with Tween-80 121 % of control | dose: 100.0 mg/kg/injection, schedule: Q04DX003 (ip), vehicle: Klucel (hydroxypropylcellulose) (HPC) 100 % of control and 101 % of control | dose: 200.0 mg/kg/injection, schedule: Q01DX001 (ip), vehicle: saline with Tween-80 111 % of control | dose: 400.0 mg/kg/injection, schedule: Q01DX001 (ip), vehicle: saline with Tween-80 101 % of control

CCOc1ccc(OCC)c(NC(=O)Nc2ccccc2Cl)c1
inactive: dose: 25.0 mg/kg/injection, schedule: Q04DX002 (ip), vehicle: saline with Tween-80 94 % of control | dose: 50.0 mg/kg/injection, schedule: Q04DX002 (ip), vehicle: saline with Tween-80 94 % of control | dose: 100.0 mg/kg/injection, schedule: Q04DX002 (ip), vehicle: saline with Tween-80 90 % of control
